Several values for one entry are separate records, joined by “and”; a condition that tells them apart may be missing. Equal entries are not always repeated.
Biological target: T1, hP2X7R (Homo sapiens, UniProt Q99572)
T1 sequence (Q99572 1-595): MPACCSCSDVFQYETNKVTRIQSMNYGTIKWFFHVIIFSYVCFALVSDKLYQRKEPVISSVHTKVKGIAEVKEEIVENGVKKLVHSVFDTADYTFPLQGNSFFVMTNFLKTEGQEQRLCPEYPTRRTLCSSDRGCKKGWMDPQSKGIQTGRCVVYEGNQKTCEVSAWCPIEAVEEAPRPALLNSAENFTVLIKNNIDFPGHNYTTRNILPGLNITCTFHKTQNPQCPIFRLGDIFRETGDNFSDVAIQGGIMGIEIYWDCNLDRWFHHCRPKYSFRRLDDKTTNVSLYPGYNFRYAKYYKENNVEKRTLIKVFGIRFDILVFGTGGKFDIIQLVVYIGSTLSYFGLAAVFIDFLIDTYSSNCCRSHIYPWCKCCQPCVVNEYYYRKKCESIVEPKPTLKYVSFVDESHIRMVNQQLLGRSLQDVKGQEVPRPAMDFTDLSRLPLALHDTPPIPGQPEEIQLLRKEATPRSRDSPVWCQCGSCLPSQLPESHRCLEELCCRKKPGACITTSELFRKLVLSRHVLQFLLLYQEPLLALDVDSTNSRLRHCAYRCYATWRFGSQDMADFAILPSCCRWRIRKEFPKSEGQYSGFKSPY
Assay: TEVC determination of antagonist binding kinetics in Xenopus oocytes
Format: cell-based
Parameters: expressed in transfected cells; host or cells: Xenopus laevis oocytes injected with capped cRNA (modified pUC19 vector, T7)
Conditions: for IC50: Supplementary Fig. 10D, read-out: IC50 from binding equilibrium (plateau) dose inhibition curve; for off-rate of binding to the hP2X7R: graphically determined (y-intercept); for off-rate, Response [%]: single replicates
Method: Xenopus laevis frogs were from Nasco International (Fort Atkinson, WI) and kept at the Core Facility Animal Models (CAM) of the Biomedical Center (BMC) of LMU Munich, Germany (Az:4.3.2–5682/LMU/BMC/CAM) in accordance with the EU Animal Welfare Act. Ovaries were surgically extracted (ROB_54-011-AZ 2532.Vet_02-23-166), treated with collagenase (Nordmark, Uetersen, Germany 1.0–1.5 mg/mL, ≥2 at RT) and defolliculated (15-min treatment in Ca^2+-free oocyte Ringer (90 mM NaCl, 1 mM KCl, 2 mM MgCl2, 5 mM HEPES), respectively. 50 nL of cRNA (0.5 µg/µL) were injected using a Nanoject II injector (Science Products, Drummond) and oocytes were kept in ND96 (96 mM NaCl, 2 mM KCl, 1 mM MgCl2, 1 mM CaCl2, 5 mM HEPES, pH 7.4–7.5). The plasmid containing the hP2X7R was linearized with NotI-HF (NEB) and purified with the MinElute Reaction Cleanup Kit (Qiagen, Hilden, Germany). Capped cRNA was synthesized using the mMESSAGE mMACHINE™ T7 Transcription Kit (ThermoFisher Scientific, Schwerte, Germany) and dissolved in nuclease-free water (500 ng/µL). Injected oocytes were allowed to express for at least 36 hours.
Two-electrode voltage clamp recordings were performed at room temperature and a holding potential of −70 mV using a Turbo Tec-05X Amplifier (npi electronic, Tamm, Germany), a magnetic valve system, and CellWorks E 5.5.1 software. Currents were filtered at 1 kHz and digitized at 200 Hz. Electrode resistances were below 1.2 MΩ. […] Recordings were performed in ND96.
After obtaining reproducible agonist-evoked responses, solutions were switched to antagonist-containing recording solutions with and without ATP to determine association rates. Responses following antagonist application were normalized to the preceding, stabilized agonist responses. Dissociation was determined in 1- or 2 min intervals when currents were reduced to <10%. Association curves were fit to the data by the equation % Response = (100-Plateau)*exp(-kobs*Time) + Plateau, where Plateau indicates the response at equilibrium and kobs the experimentally determined on-rate. All data were analyzed using Prism software (GraphPad Software, Inc., Version 8.3.0, San Diego, CA) and are presented as means ± SD from at least three oocytes. […] The final concentration of DMSO in the recording solution was ≤1%.
Supplementary Fig. 10: Kinetics of ligands binding to the hP2X7R measured by TEVC. (A) […]
All data represented as mean ± S.D. with n=3, 7, 7, and 7 f or the experiments performed at 3 nM, 10 nM, 30 nM, and 100 nM […]
(B) Representative current traces for t he activation
(C) On- and off-r at e constants and Ki
Observed on- r at es kobs were determined by fitting the data (Fig. 4H, Supplementary Fig. 10A) to the function: % response = (100- Plateau)*exp(-kobs*time)+Plateau and plotted against the antagonist concentrations to obtain koff according to k obs=kon*F+koff. Assuming a (simplified) 1:1 binding model, of f-r at e constant koff and Ki values were estimated using the previous formulas as well as Ki=koff/kon. […]
determined by Ca2+ imaging (18 nM, Fig. 3B ) and the binding equilibrium reached at each […]
values of UB-MBX-46 c annot reflect an accurate value due to the nearly negligible dissociation on the timescale of the experiment. If k off was estimated based on the IC50 value (IC50 = koff/kon panel D), a more accurate koff value can be obtained. Numbers in square brackets are 95% Confidence Intervals. *values obtained from an extrapolated dose inhibition curve from D . (D) The plateau values, representing the binding equilibrium, were used to generate dose inhibition

Compound: O=C(NNc1ccccc1Cl)C12CC3CC(CC(C3)C1)C2 [UB-ALT-P30, reference compound]
- Ki (Ki=koff/kon, 1:1 binding model): 28 nM
- IC50 (TEVC): 15 nM
- off-rate of binding to the hP2X7R (TEVC): 0.29 min⁻¹
- Response %, plateau (binding equilibrium) (log [Antagonist] M -7): 5.6% and 1.4% and 0% and 2.8%
- Response %, plateau (binding equilibrium) (log [Antagonist] M -8): 55.2% and 63.2% and 73.1%
- off-rate, Response [%] (time 2 min): 6.1% and 5.1% and 4% and 3.2% and 6.5%
- off-rate, Response [%] (time 4 min): 18.2% and 19.2% and 16% and 12.9% and 19.4%
- off-rate, Response [%] (time 6 min): 33.3% and 37.2% and 28% and 29% and 32.3%
- off-rate, Response [%] (time 8 min): 48.5% and 57.7% and 44% and 38.7% and 48.4%
- off-rate, Response [%] (time 10 min): 63.6% and 73.1% and 60% and 54.8% and 64.5%

Compound: CC12CC3CC1(C)C1(C)CC3(C(=O)NNc3ccccc3Cl)CC21C [UB-MBX-46]
- Response [%], on-rate to hP2X7R (3 nM, 8 min): 81.7% and 82.6% and 84.4%
- Response [%], on-rate to hP2X7R (3 nM, 10 min): 79.7% and 80.2% and 82.1%
- Response [%], on-rate to hP2X7R (3 nM, 12 min): 77.1% and 77.3% and 80.4%
- Response [%], on-rate to hP2X7R (3 nM, 14 min): 75.7% and 75% and 78.9%
- Response [%], on-rate to hP2X7R (3 nM, 16 min): 74.3% and 73.3% and 77.9%
- Response [%], on-rate to hP2X7R (3 nM, 18 min): 72.4% and 72% and 76.9%
- Response [%], on-rate to hP2X7R (3 nM, 20 min): 71.3% and 75.5%
- Response [%], on-rate to hP2X7R (3 nM, 22 min): 71.1% and 69.9% and 74.3%
- Response [%], on-rate to hP2X7R (3 nM, 24 min): 70.1% and 68.7% and 73%
- Response [%], on-rate to hP2X7R (3 nM, 26 min): 68.4% and 67% and 71.9%
- Response [%], on-rate to hP2X7R (3 nM, 28 min): 67.5%
- Response [%], on-rate to hP2X7R (10 nM, 8 min): 46.2% and 42.1% and 45.9% and 43.2%
- Response [%], on-rate to hP2X7R (10 nM, 10 min): 38.5% and 32.7% and 36.4% and 35.2%
- Response [%], on-rate to hP2X7R (10 nM, 12 min): 32.3% and 28.4% and 29.5% and 27.9%
- Response [%], on-rate to hP2X7R (10 nM, 14 min): 27.8% and 23.8% and 23.7% and 22%
- Response [%], on-rate to hP2X7R (10 nM, 16 min): 24.1% and 19.5% and 19% and 18.8%
- Response [%], on-rate to hP2X7R (10 nM, 18 min): 21.6% and 17% and 14.3% and 15.8%
- Response [%], on-rate to hP2X7R (10 nM, 20 min): 17.8% and 14.3% and 12.1% and 13.7%
- Response [%], on-rate to hP2X7R (10 nM, 22 min): 14.9% and 12.5% and 10.6% and 11.9%
- Response [%], on-rate to hP2X7R (10 nM, 24 min): 12.6% and 11.2% and 8.8% and 10.6%
- Response [%], on-rate to hP2X7R (10 nM, 26 min): 11% and 9.8% and 7.8% and 9.3%
- Response [%], on-rate to hP2X7R (30 nM, 10 min): 13.8% and 4.3% and 7.1% and 7.5%
- Response [%], on-rate to hP2X7R (30 nM, 12 min): 8.8% and 2.5% and 5.3% and 5.2%
- Response [%], on-rate to hP2X7R (30 nM, 14 min): 6% and 1.6% and 3.8% and 3.4%
- Response [%], on-rate to hP2X7R (30 nM, 16 min): 4.7% and 0.9% and 2.8% and 2.9%
- Response [%], on-rate to hP2X7R (30 nM, 18 min): 3% and 0.6% and 2.3% and 2%
- Response [%], on-rate to hP2X7R (30 nM, 20 min): 1.7% and 0.4% and 2%
- Response [%], on-rate to hP2X7R (30 nM, 22 min): 1.2% and 0.4% and 1.8%
- Response [%], on-rate to hP2X7R (100 nM, 8 min): 0.4% and 0.9% and 0.6% and 1.9%
- antagonism of the hP2X7R (TEVC, 300 µM ATP, 100 nM antagonist): strong antagonism
- IC50 (TEVC): 3.8 nM
- off-rate of binding to the hP2X7R (TEVC): 0.07 min⁻¹
- Response %, plateau (binding equilibrium) (log [Antagonist] M -7): 0.2985% and 1.206% and 0.0001019% and 1.64%
- Response %, plateau (binding equilibrium) (log [Antagonist] M -7.5): 0.2898% and 1.031% and 2.642% and 2.211%
- Response %, plateau (binding equilibrium) (log [Antagonist] M -8): 7.079% and 5.855% and 4.45E-19% and 3.075%
- Response %, plateau (binding equilibrium) (log [Antagonist] M -8.5): 67.01% and 62.07% and 63.87%
- off-rate, Response [%] (time 1 min): 2.6% and 0.9% and 1.5%
- off-rate, Response [%] (time 2 min): 2.8% and 1.3% and 1.5%
- off-rate, Response [%] (time 3 min): 3.3% and 1.5% (2×)
- off-rate, Response [%] (time 4 min): 3.1% and 1.7% and 1.5%
- off-rate, Response [%] (time 5 min): 2.6% and 1.7% and 1.5%
- off-rate, Response [%] (time 6 min): 2.6% and 2% and 1.5%
- off-rate, Response [%] (time 7 min): 2.9% and 2.3% and 1.5%
- off-rate, Response [%] (time 8 min): 2.9% and 2.3% and 1.5%
- off-rate, Response [%] (time 9 min): 2.9% and 2.5% and 1.5%
- off-rate, Response [%] (time 10 min): 3.3% and 2.5% and 1.5%
- antagonist dissociation from the hP2X7R (within 10 min of wash-out): virtually irreversible binding
